Target: T1, human recombinant USP30 (Homo sapiens, UniProt Q70CQ3)
T1 construct: purchased Boston Biochem E-582
T1 sequence (Q70CQ3 1-517): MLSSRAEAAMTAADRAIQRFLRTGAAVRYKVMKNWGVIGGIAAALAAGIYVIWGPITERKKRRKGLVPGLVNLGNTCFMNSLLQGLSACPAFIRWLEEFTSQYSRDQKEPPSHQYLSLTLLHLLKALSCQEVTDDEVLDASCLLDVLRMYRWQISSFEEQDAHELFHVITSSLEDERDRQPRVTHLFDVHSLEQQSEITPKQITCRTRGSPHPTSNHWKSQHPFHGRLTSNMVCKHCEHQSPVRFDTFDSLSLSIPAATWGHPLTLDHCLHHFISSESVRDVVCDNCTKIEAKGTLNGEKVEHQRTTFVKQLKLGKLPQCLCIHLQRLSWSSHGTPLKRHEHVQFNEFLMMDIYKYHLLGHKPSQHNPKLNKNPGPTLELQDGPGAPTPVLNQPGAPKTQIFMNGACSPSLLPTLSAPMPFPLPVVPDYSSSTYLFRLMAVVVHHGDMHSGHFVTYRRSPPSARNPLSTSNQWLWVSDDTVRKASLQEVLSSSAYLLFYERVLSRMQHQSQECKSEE
Test: Ubiquitin-Rhodamine 110 Assay for USP30 Activity (USP30 biochemical assay)
Settings: IC50 ranges; 0.4 nM enzyme, 25 nM Ub-Rh110, 30 min preincubation, test concentration 25 μM to 1.3 nM
Experimental: Assay Example A: Description of Biochemical Assay: Ubiquitin-Rhodamine 110 Assay for USP30 Activity
The assay was performed in a final volume of 6 μL in assay buffer containing 20 mM Tris-HCl (pH 8.0, (1M Tris-HCl, pH 8.0 solution; Corning 46-031-CM)), 1 mM GSH (L-glutathione reduced, Sigma-Aldrich, G4251-100G), 0.03% BGG ([…], Sigma, G7516-25G), and 0.01% Triton X-100 (Sigma, T9284-10L). Nanoliter quantities of 10-point, 3-fold serial dilution in DMSO were pre-dispensed into 1536 assay plates (Corning, #3724BC) for a final test concentration of 25 μM to 1.3 nM, top to lowest dose, respectively. Concentration and incubation times were optimized for the maximal signal-to-background while maintaining initial velocity conditions at a fixed substrate concentration (<<Km). The final concentration of enzyme (human recombinant USP30, Boston Biochem, cat. #E-582) in the assay was 0.4 nM. Final substrate (Ub-R^h110; Ubiquitin-Rhodamine 110, UbiQ-126) concentration was 25 nM. 3 μL of 2× enzyme was added to assay plates (pre-stamped with compound), preincubated for 30 minutes and then treated with 3 μL of 2× substrate. Plates were read for fluorescence on the Envision (Perkin Elmer) or PheraSTAR (BMG) (excitation at 485 nm and emission at 535 nm) 5 times over the course of 11 minutes and the slope of this kinetic read used to normalize the raw data.
For all assay formats, data were reported as percent inhibition compared with control wells based on the following equation: % inh=1−((FLU−AveLow)/(AveHigh−AveLow)) where FLU=measured Fluorescence, AveLow=average Fluorescence of no enzyme control (n=32), and AveHigh=average Fluorescence of DMSO control (n=32). IC50 values were determined by curve fitting of the standard 4 parameter logistic fitting algorithm included in the Activity Base software package: IDBS XE Designer Model205. Data are fitted using the Levenburg Marquardt algorithm.

Compound	IC50 [nM]
N#CN1CCN2CCN(c3ncc(-c4cccc(Cl)c4)cn3)C(=O)[C@@H]2C1 (single isomer, unassigned) [Compound 1-5S]	1000 to 10000
N#Cc1cccc(-c2cnc(N3CCN4CCN(C#N)C[C@H]4C3=O)nc2)c1 (single isomer, unassigned) [Compound 1-4S]	1000 to 10000
N#CN1CCN2CCN(c3ncc(-c4cccc(CN5CCC5)c4)s3)C(=O)[C@@H]2C1 (single isomer, unassigned) [Compound 1-115S]	1000 to 10000
N#CN1CC(=O)N2CCN(c3ncc(C4CCCCC4)s3)C[C@@H]2C1 (single isomer, unassigned) [Compound 3-1S]	100 to 1000
N#CN1CCN2CCN(c3ncc(N4CCCC[C@@H]4Cc4ccccc4)s3)C(=O)[C@H]2C1 (single isomer, unassigned) [1-118R,R]	100 to 1000
CC(C)(C)c1sc(N2CC(=O)N3CCN(C#N)C[C@H]3C2=O)nc1Cl (single isomer, unassigned) [Compound 6-1S]	< 100
N#CN1CCN2CCN(c3nc(Cl)c(C4CCCCC4)s3)C(=O)[C@H]2C1 (single isomer, unassigned) [Compound 1-3R]	< 100
N#CN1CCN2CCN(c3ncc(N4CCCC[C@H]4Cc4ccccc4)s3)C(=O)[C@@H]2C1 (single isomer, unassigned) [1-118S,S]	100 to 1000
N#CN1CCN2CCN(c3ncc(N4CCCC[C@H]4Cc4ccccc4)s3)C(=O)[C@H]2C1 (single isomer, unassigned) [1-118R,S]	< 100
N#CN1CC[C@H]2CCN(c3ncc(C4CCCCC4)s3)C(=O)[C@@H]2C1 (single isomer, unassigned) [1-12S,S]	1000 to 10000
N#CN1CCN2CCN(c3ncc(-c4cccc(Cl)c4)s3)C(=O)[C@@H]2C1 (single isomer, unassigned) [Compound 1-7S]	< 100
CC(C)(C)c1sc(N2CCN3CCN(C#N)C[C@]3(F)C2=O)nc1Cl (single isomer, unassigned) [Compound 1-116S]	1000 to 10000
N#Cc1cccc(-c2cnc(N3CCN4CCN(C#N)C[C@H]4C3=O)s2)c1 (single isomer, unassigned) [Compound 1-6S]	< 100
N#CN1CCN2CCN(c3ncc(-c4ccccc4Oc4ccccc4)s3)C(=O)C2C1 (stereo in doubt) [Compound 1-113R, (R)-9-oxo-8-(5-(2-phenoxyphenyl)thiazol-2-yl)octahydro-2H-pyrazino[1,2-a]pyrazine-2-carbonitrile]	< 100
CC(C)(C)c1sc(N2CCN3CCN(C#N)C[C@H]3C2=O)nc1Cl (single isomer, unassigned) [Compound 1-2S]	< 100
N#CN1CCN2CCN(c3ncc(C4CCCCC4)s3)C(=O)[C@H]2C1 (single isomer, unassigned) [Compound 1-1R]	< 100
N#CN1CCN2CCN(c3cc(-c4ccccc4Oc4ccccc4)[nH]n3)C(=O)[C@H]2C1 (single isomer, unassigned) [Compound 1-114R]	100 to 1000
CC(C)(C)c1sc(N2CCN3CCN(C#N)C[C@@H]3C2=O)nc1Cl (single isomer, unassigned) [Compound 1-2R]	< 100
N#CN1CCN2CCN(c3cc(-c4cccc(Cl)c4)on3)C(=O)[C@H]2C1 (single isomer, unassigned) [Compound 1-11R]	> 25000
C[C@@]12CN(C#N)CCN1CCN(c1ncc(C3CCCCC3)s1)C2=O (single isomer, unassigned) [Compound 1-117S]	1000 to 10000
N#CN1CC(=O)N2CCN(c3ncc(C4CCCCC4)s3)C[C@H]2C1 (single isomer, unassigned) [Compound 3-1R]	< 100
C[C@]12CN(C#N)CCN1CCN(c1ncc(C3CCCCC3)s1)C2=O (single isomer, unassigned) [Compound 1-117R]	< 100
N#CN1CC[C@@H]2CCN(c3ncc(C4CCCCC4)s3)C[C@@H]2C1 (single isomer, unassigned) [4-1R,S]	1000 to 10000

Compound	IC50 [nM]
N#Cc1cccc(-c2cnc(N3CCN4CCN(C#N)C[C@@H]4C3=O)s2)c1 (single isomer, unassigned) [Compound 1-6R]	< 100
N#Cc1cccc(-c2cnc(N3CCN4CCN(C#N)C[C@@H]4C3=O)nc2)c1 (single isomer, unassigned) [Compound 1-4R]	1000 to 10000
N#CN1CCN2CCN(c3cc(-c4ccccc4Oc4ccccc4)[nH]n3)C(=O)[C@@H]2C1 (single isomer, unassigned) [Compound 1-114S]	100 to 1000
N#CN1CC[C@H]2CCN(c3ncc(C4CCCCC4)s3)C(=O)[C@H]2C1 (single isomer, unassigned) [1-12S,R]	1000 to 10000
N#CN1CCN2CCN(c3ncc(-c4cccc(Cl)c4)s3)C(=O)[C@H]2C1 (single isomer, unassigned) [Compound 1-7R]	< 100
N#CN1CCN2CCN(c3ncc(-c4cccc(CN5CCC5)c4)s3)C(=O)[C@H]2C1 (single isomer, unassigned) [Compound 1-115R]	1000 to 10000
CC(C)(C)c1sc(N2CC(=O)N3CCN(C#N)C[C@@H]3C2=O)nc1Cl (single isomer, unassigned) [Compound 6-1R]	< 100
N#Cc1cccc(-c2cnc(N3C[C@H]4CCN(C#N)C[C@H]4C3)nc2)c1 (single isomer, unassigned) [5-2S,S]	10000 to 25000
N#CN1CCN2CCN(c3ncc(-c4ccccc4Oc4ccccc4)s3)C(=O)C2C1 (stereo in doubt) [Compound 1-113S, (S)-9-oxo-8-(5-(2-phenoxyphenyl)thiazol-2-yl)octahydro-2H-pyrazino[1,2-a]pyrazine-2-carbonitrile]	< 100
N#CN1CCN2CCN(c3nc(Cl)c(C4CCCCC4)s3)C(=O)[C@@H]2C1 (single isomer, unassigned) [Compound 1-3S]	< 100
CC(C)(C)c1sc(N2CCN3CCN(C#N)C[C@@]3(F)C2=O)nc1Cl (single isomer, unassigned) [Compound 1-116R]	1000 to 10000
N#CN1CC[C@H]2CCN(c3ncc(C4CCCCC4)s3)C[C@H]2C1 (single isomer, unassigned) [4-1S,R]	1000 to 10000
N#CN1CC[C@@H]2CN(c3ncc(C4CCCCC4)s3)C(=O)[C@@H]2C1 (single isomer, unassigned) [5-1S,S]	1000 to 10000
N#CN1CCN2CCN(c3ncc(N4CCCC[C@@H]4Cc4ccccc4)s3)C(=O)[C@@H]2C1 (single isomer, unassigned) [1-118S,R]	100 to 1000
CC(C)(C)c1cnc(N2CCN3CCN(C#N)C[C@]3(C)C2=O)s1 (single isomer, unassigned) [Compound 1-15R]	1000 to 10000
N#CN1CCN2CCN(c3ncc(-c4cccc(Cl)c4)cn3)C(=O)[C@H]2C1 (single isomer, unassigned) [Compound 1-5R]	1000 to 10000
N#CN1CC[C@@H]2CCN(c3ncc(C4CCCCC4)s3)C(=O)[C@H]2C1 (single isomer, unassigned) [1-12R,R]	100 to 1000
N#CN1CCN2CCN(c3ncc(-c4ccccc4)s3)C(=O)[C@@H]2C1 (single isomer, unassigned) [Compound 1-14S]	100 to 1000
N#Cc1cccc(-c2cnc(N3C[C@H]4CN(C#N)CC[C@H]4C3)nc2)c1 (single isomer, unassigned) [5-2R,R]	> 25000
N#CN1CCN2CCN(c3cc(-c4cccc(Cl)c4)on3)C(=O)[C@@H]2C1 (single isomer, unassigned) [Compound 1-11S]	> 25000
N#CN1CCN2CCN(c3ncc(-c4ccccc4)s3)C(=O)[C@H]2C1 (single isomer, unassigned) [Compound 1-14R]	< 100
N#CN1CCN2CCN(c3ncc(C4CCCCC4)s3)C(=O)[C@@H]2C1 (single isomer, unassigned) [Compound 1-1S]	100 to 1000
N#CN1CC[C@H]2CN(c3ncc(C4CCCCC4)s3)C(=O)[C@H]2C1 (single isomer, unassigned) [5-1R,R]	10000 to 25000
